What was measured:
[1] = target: T1, Alpha-1D adrenergic receptor (Homo sapiens, UniProt P25100); format: cell membranes, HEK293, Membrane; details: hek293; further: in other assays of this panel Not Active means under 50% inhibition at 10 µM
T1 sequence (P25100 whole entry): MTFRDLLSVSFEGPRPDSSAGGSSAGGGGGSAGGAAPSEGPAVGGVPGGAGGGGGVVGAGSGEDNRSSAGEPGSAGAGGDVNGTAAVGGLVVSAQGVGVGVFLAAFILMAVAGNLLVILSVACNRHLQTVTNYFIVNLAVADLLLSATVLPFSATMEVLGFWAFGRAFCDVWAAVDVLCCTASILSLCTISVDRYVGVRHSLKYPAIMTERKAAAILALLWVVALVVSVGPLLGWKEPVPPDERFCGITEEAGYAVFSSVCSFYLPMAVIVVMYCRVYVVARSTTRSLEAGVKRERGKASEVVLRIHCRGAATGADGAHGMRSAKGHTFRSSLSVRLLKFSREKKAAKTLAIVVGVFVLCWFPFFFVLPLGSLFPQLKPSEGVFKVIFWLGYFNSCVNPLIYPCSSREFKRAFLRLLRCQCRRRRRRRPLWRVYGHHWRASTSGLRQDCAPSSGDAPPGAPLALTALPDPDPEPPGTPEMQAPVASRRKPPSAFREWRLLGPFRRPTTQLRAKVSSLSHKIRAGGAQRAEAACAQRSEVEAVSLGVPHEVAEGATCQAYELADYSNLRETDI

[2] = target: Sodium-dependent noradrenaline transporter (Homo sapiens, UniProt P23975); test: DRUGMATRIX: Norepinephrine Transporter radioligand binding (ligand: [125I] RTI-55); format: cell membranes, MDCK, Membrane; details: mdck; Not Active = under 50% inhibition at 10 µM
Sequence of Sodium-dependent noradrenaline transporter (P23975 whole entry): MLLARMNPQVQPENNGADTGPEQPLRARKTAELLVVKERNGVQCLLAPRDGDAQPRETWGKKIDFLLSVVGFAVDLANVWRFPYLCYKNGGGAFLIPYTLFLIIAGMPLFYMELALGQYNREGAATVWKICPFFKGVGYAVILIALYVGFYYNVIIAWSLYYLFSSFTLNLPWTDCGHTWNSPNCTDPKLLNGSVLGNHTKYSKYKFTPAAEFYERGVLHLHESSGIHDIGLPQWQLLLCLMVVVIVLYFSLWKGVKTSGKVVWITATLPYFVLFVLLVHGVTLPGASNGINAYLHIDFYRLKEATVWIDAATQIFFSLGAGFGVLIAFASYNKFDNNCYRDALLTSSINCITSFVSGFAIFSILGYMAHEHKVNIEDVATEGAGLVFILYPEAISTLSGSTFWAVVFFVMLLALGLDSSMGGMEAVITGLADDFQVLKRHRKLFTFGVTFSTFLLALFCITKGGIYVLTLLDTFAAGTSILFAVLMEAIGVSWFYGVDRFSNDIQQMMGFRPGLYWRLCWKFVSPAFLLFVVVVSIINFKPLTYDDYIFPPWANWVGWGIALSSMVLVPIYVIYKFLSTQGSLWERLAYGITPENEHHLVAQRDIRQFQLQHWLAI

[3] = target: 5-hydroxytryptamine receptor 4 (Cavia porcellus, UniProt O70528); format: cell membranes, Dunkin-Hartley, Striatum, Membrane; further: in other assays of this panel Not Active means under 50% inhibition at 10 µM
Sequence of 5-hydroxytryptamine receptor 4 (O70528 whole entry): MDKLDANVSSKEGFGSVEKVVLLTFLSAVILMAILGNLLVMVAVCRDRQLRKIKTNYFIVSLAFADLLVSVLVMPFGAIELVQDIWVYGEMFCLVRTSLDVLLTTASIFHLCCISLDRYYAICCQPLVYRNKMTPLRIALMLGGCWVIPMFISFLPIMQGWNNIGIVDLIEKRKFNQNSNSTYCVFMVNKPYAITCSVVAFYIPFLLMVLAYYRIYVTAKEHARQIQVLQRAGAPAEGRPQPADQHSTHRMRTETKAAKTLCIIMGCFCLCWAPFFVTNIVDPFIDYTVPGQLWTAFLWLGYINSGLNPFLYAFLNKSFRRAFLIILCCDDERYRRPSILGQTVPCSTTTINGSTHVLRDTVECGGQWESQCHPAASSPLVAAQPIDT

Histamine H2 receptor = Histamine H2 receptor (Homo sapiens, UniProt P25021); format: cell membranes, CHO-K1, Membrane; details: cho-k1; further: in other assays of this panel Not Active means under 50% inhibition at 10 µM
Sequence of Histamine H2 receptor (P25021 whole entry): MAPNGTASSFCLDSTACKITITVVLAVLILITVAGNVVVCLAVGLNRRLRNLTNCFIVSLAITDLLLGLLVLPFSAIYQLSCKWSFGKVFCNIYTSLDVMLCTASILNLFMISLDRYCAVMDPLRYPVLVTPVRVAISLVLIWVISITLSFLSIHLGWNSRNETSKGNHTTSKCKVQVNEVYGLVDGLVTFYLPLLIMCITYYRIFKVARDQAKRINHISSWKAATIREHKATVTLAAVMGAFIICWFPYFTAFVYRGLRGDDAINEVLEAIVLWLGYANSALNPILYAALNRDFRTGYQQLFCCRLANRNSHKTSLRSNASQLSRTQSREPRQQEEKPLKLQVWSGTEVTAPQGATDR

[4] = DRUGMATRIX: Platelet-Derived Growth Factor (PDGF) radioligand binding (ligand: [125I] PDGF); format: cell-based; details: nih3t3; Not Active = under 50% inhibition at 10 µM
[5] = target: Protein phosphatase 3 catalytic subunit alpha (Homo sapiens, UniProt Q08209); set-up: species or system Escherichia coli;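 further: inhibition of calcineurin (PP2B) enzyme activity, measured with DiFMUP as the substrate; in other assays of this panel Not Active means under 50% inhibition at 10 µM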
Adenosine receptor A1 = target: T2, Adenosine receptor A1 (Homo sapiens, UniProt P30542); format: cell membranes, CHO, Membrane; details: cho
T2 sequence (P30542 whole entry): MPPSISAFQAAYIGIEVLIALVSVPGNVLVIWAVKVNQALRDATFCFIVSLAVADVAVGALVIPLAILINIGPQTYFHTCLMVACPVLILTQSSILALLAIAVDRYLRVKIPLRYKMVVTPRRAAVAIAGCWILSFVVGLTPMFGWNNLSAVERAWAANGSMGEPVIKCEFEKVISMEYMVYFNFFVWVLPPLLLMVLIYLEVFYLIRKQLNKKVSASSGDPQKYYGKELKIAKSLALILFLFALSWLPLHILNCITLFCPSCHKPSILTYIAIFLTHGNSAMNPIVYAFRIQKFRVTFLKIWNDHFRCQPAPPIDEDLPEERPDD

CC(c1cc2ccccc2s1)N(O)C(N)=O (stereo not given) [ZILEUTON]
Not Active: IC50 [1] | IC50 [2] | IC50 [3] | IC50 (Histamine H2 receptor) | IC50 [4] | Ki [4] | IC50 [5] | IC50 (Adenosine receptor A1)

O=C1C(CC[S+]([O-])c2ccccc2)C(=O)N(c2ccccc2)N1c1ccccc1 (stereo not given) [SULFINPYRAZONE]
Not Active: IC50 [1] | IC50 [2] | IC50 [3] | IC50 (Histamine H2 receptor) | IC50 [4] | Ki [4] | IC50 [5] | IC50 (Adenosine receptor A1)

CCN1CCC[C@H]1CNC(=O)c1cc(S(N)(=O)=O)ccc1OC [LEVOSULPIRIDE]
Not Active: IC50 [1] | IC50 [2] | IC50 [3] | IC50 (Histamine H2 receptor) | IC50 [4] | Ki [4] | IC50 [5] | IC50 (Adenosine receptor A1)

CCN(CC)CCNC(=O)c1cc(S(C)(=O)=O)ccc1OC [TIAPRIDE]
Not Active: IC50 [1] | IC50 [2] | IC50 [3] | IC50 (Histamine H2 receptor) | IC50 [4] | Ki [4] | IC50 [5] | IC50 (Adenosine receptor A1)

CCCCOc1cc(CC2CNC(=O)N2)ccc1OC (stereo not given) [RO-201724]
Not Active: IC50 [1] | IC50 [2] | IC50 [3] | IC50 (Histamine H2 receptor) | IC50 [4] | Ki [4] | IC50 [5] | IC50 (Adenosine receptor A1)

From ChEMBL document CHEMBL1909046, “DrugMatrix in vitro pharmacology data”
